From the NIST ThermoML archive (doi:10.1021/je400408w)

Experiments:
[1] = 101.33 kPa, Liquid; for speed of sound: Pulse-echo method; for mass density: Vibrating tube method
[2] = molar heat capacity at constant pressure; settings: 100 kPa, Liquid
[3] = molar heat capacity at constant pressure; xn = mol fraction of the nth substance listed; settings: 100 kPa, Liquid

Cc1ccccc1Cl [2-chlorotoluene]
Settings	mass density, 293.15 K [kg/m3]	mass density, 298.15 K [kg/m3]	mass density, 303.15 K [kg/m3]	molar heat capacity at constant pressure, 293.15 K [J/K/mol]	molar heat capacity at constant pressure, 298.15 K [J/K/mol]	molar heat capacity at constant pressure, 303.15 K [J/K/mol]	speed of sound, 293.15 K [m/s]	speed of sound, 298.15 K [m/s]	speed of sound, 303.15 K [m/s]
[1]	1082.22	1077.34	1072.46	–	–	–	1316.8	1298.7	1280.7
[2]	–	–	–	176.43	178.21	180.01	–	–	–

O=C1CCCN1 [2-pyrrolidinone]
Settings	mass density, 293.15 K [kg/m3]	mass density, 298.15 K [kg/m3]	mass density, 303.15 K [kg/m3]	molar heat capacity at constant pressure, 293.15 K [J/K/mol]	molar heat capacity at constant pressure, 298.15 K [J/K/mol]	molar heat capacity at constant pressure, 303.15 K [J/K/mol]	speed of sound, 293.15 K [m/s]	speed of sound, 298.15 K [m/s]	speed of sound, 303.15 K [m/s]
[1]	1111.28	1107.15	1103.06	–	–	–	1651.4	1635	1618.7
[2]	–	–	–	168.36	169.55	171.18	–	–	–

Cc1cccc(Cl)c1 [3-chlorotoluene]
Settings	mass density, 293.15 K [kg/m3]	mass density, 298.15 K [kg/m3]	mass density, 303.15 K [kg/m3]	molar heat capacity at constant pressure, 293.15 K [J/K/mol]	molar heat capacity at constant pressure, 298.15 K [J/K/mol]	molar heat capacity at constant pressure, 303.15 K [J/K/mol]	speed of sound, 293.15 K [m/s]	speed of sound, 298.15 K [m/s]	speed of sound, 303.15 K [m/s]
[1]	1072.12	1067.23	1062.33	–	–	–	1313.6	1295.5	1277.3
[2]	–	–	–	175.21	176.46	177.67	–	–	–

Cc1ccc(Cl)cc1 [4-chlorotoluene]
Settings	mass density, 293.15 K [kg/m3]	mass density, 298.15 K [kg/m3]	mass density, 303.15 K [kg/m3]	molar heat capacity at constant pressure, 293.15 K [J/K/mol]	molar heat capacity at constant pressure, 298.15 K [J/K/mol]	molar heat capacity at constant pressure, 303.15 K [J/K/mol]	speed of sound, 293.15 K [m/s]	speed of sound, 298.15 K [m/s]	speed of sound, 303.15 K [m/s]
[1]	1069.27	1064.37	1059.46	–	–	–	1306.5	1288.4	1270.3
[2]	–	–	–	175.66	177.95	180.37	–	–	–

Cc1ccc(Cl)cc1 [4-chlorotoluene] + CN1CCCC1=O
molar heat capacity at constant pressure [J/K/mol], [3]
Settings	293.15 K	298.15 K	303.15 K
x2 = 0	175.66	177.95	180.37
x2 = 0.0671	176.7	178.71	180.9
x2 = 0.1128	177.44	179.35	181.36
x2 = 0.1487	178.03	179.8	181.81
x2 = 0.1876	178.67	180.38	182.29
x2 = 0.2219	179.21	180.88	182.72
x2 = 0.2615	179.85	181.44	183.16
x2 = 0.2987	180.33	181.87	183.61
x2 = 0.3328	180.77	182.28	183.94
x2 = 0.3728	181.29	182.72	184.22
x2 = 0.4137	181.62	183.02	184.44
x2 = 0.4512	181.89	183.22	184.54
x2 = 0.4928	182.07	183.31	184.53
x2 = 0.5316	182.09	183.2	184.46
x2 = 0.5773	181.94	182.93	184.08
x2 = 0.6154	181.61	182.53	183.54
x2 = 0.6542	181.16	182.01	182.89
x2 = 0.6927	180.46	181.23	182.04
x2 = 0.7326	179.54	180.21	180.88
x2 = 0.7732	178.32	178.9	179.49
x2 = 0.8142	176.8	177.33	177.84
x2 = 0.8315	176	176.54	177.12
x2 = 0.8715	174.08	174.58	175.13
x2 = 0.9153	171.57	172.16	172.62
x2 = 0.9534	169.04	169.62	170.26
